These are literature values, as cited in US12178814B2, “Pharmaceutical composition” (ASTELLAS PHARMA INC., priority 2019, dated 2024).

Molecules are shown by their SMILES.

This series concerns EML4 (Echinoderm microtubule associated protein like-4)-ALK (Anaplastic lymphoma kinase) fusion protein. The note with it: reported in WO2010/128659, WO2017/006855.

Consider `CCc1nc(C(N)=O)c(Nc2ccc(N3CCC(N4CCN(C)CC4)CC3)c(OC)c2)nc1NC1CCOCC1` [gilteritinib, 6-Ethyl-3-{3-methoxy-4-[4-(4-methylpiperazin-1-yl)piperidin-1-yl]anilino}-5-[(oxan-4-yl)amino]pyrazine-2-carboxamide], for which the “inhibitory activity of a kinase activity of EML4-ALK fusion protein” value was “inhibitory activity”.
